Assay results as given in patent US11345712B2, “Protein-targeting compounds and pharmaceutical compositions thereof, and their therapeutic applications” (BioTheryX, Inc., priority 2019, dated 2022).

Tested on: MOLM-13 cells
Assay: MOLM-13 cell viability assay (CellTiter-Glo)
Type: cell-based
Conditions: 3 days, concentration of 1 μM; for cytotoxicity at 1 µM: Homo sapiens, MOLM-13, 72 h, read-out: Antiproliferative Activity (inhibition, MOLM-13 cell viability)
Summary of the method: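 MOLM-13 AML cells in RPMI 1640 with 10% FBS, seeded at 2,500 cells/well and exposed to compound or DMSO for 3 days at 37° C, 5% CO2. Viability read as CellTiter-Glo luminescence after 10 min shaking.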

CC(C)(C)c1ccc(C(=O)C(=O)NCc2scc3c2CN(C2CCC(=O)NC2=O)C3=O)cc1 (stereo not shown) [Compound I-40, 2-(4-(tert-butyl)phenyl)-N-((5-(2,6-dioxopiperidin-3-yl)-4-oxo-5,6-dihydro-4H-thieno[3,4-c]pyrrol-1-yl)methyl)-2-oxoacetamide]
Antiproliferative Activity (inhibition, MOLM-13 cell viability): D (a value less than 25% inhibition)

O=C(Cc1cccc(N2CCCCC2)c1)NCc1scc2c1CN(C1CCC(=O)NC1=O)C2=O (stereo not shown) [II-76, N-((5-(2,6-dioxopiperidin-3-yl)-4-oxo-5,6-dihydro-4H-thieno[3,4-c]pyrrol-1-yl)methyl)-2-(3-(piperidin-1-yl)phenyl)acetamide]
cytotoxicity at 1 µM: > 80%

O=C1CCC(N2Cc3c(csc3CNC(=O)NCCCOc3ccccc3)C2=O)C(=O)N1 (stereo not shown) [II-145, 1-((5-(2,6-dioxopiperidin-3-yl)-4-oxo-5,6-dihydro-4H-thieno[3,4-c]pyrrol-1-yl)methyl)-3-(3-phenoxypropyl)urea]
cytotoxicity at 1 µM: 50 to 80%

Cc1cnc(NC(=O)NCc2scc3c2CN(C2CCC(=O)NC2=O)C3=O)nc1C(F)(F)F (stereo not shown) [II-40, 1-((5-(2,6-dioxopiperidin-3-yl)-4-oxo-5,6-dihydro-4H-thieno[3,4-c]pyrrol-1-yl)methyl)-3-(5-methyl-4-(trifluoromethyl)pyrimidin-2-yl)urea]
cytotoxicity at 1 µM: < 25%

CC(C)N(C)c1cccc(NC(=O)NCc2cc3c(s2)C(=O)N(C2CCC(=O)NC2=O)C3)c1 (stereo not shown) [II-56, 1-((5-(2,6-dioxopiperidin-3-yl)-6-oxo-5,6-dihydro-4H-thieno[2,3-c]pyrrol-2-yl)methyl)-3-(3-(isopropyl(methyl)amino)phenyl)urea]
cytotoxicity at 1 µM: > 80%

COc1ccc(C(=O)C(=O)NCc2cccc3c2CN(C2CCC(=O)NC2=O)C3=O)cc1 (stereo not shown) [Compound I-78, 2-(4-methoxyphenyl)-N-((2-(2,6-dioxopiperidin-3-yl)-1-oxoisoindolin-4-yl)methyl)-2-oxoacetamide]
cytotoxicity at 1 µM: 25 to 50%

O=C1CCC(N2Cc3cc(CNC(=O)C(=O)c4ccc(F)c(F)c4)ccc3C2=O)C(=O)N1 (stereo not shown) [Compound I-93, 2-(3,4-difluorophenyl)-N-((2-(2,6-dioxopiperidin-3-yl)-1-oxoisoindolin-5-yl)methyl)-2-oxoacetamide]
cytotoxicity at 1 µM: > 80%

CC(C)c1cccc(NC(=O)NCc2cc3c(s2)C(=O)N(C2CCC(=O)NC2=O)C3)c1 (stereo not shown) [II-70, 1-((5-(2,6-dioxopiperidin-3-yl)-6-oxo-5,6-dihydro-4H-thieno[2,3-c]pyrrol-2-yl)methyl)-3-(3-isopropylphenyl)urea]
cytotoxicity at 1 µM: > 80%

O=C1CCC(N2Cc3c(csc3CNC(=O)C(=O)c3ccc(C(F)(F)F)cc3)C2=O)C(=O)N1 (stereo not shown) [Compound I-23, 2-(4-trifluoromethylphenyl)-N-((5-(2,6-dioxopiperidin-3-yl)-4-oxo-5,6-dihydro-4H-thieno[3,4-c]pyrrol-1-yl)methyl)-2-oxoacetamide]
cytotoxicity at 1 µM: < 25%

Cc1ccc(CC(=O)NCc2cc3c(s2)CN(C2CCC(=O)NC2=O)C3=O)cc1Cl (stereo not shown) [II-79, 2-(3-chloro-4-methylphenyl)-N-((5-(2,6-dioxopiperidin-3-yl)-4-oxo-5,6-dihydro-4H-thieno[2,3-c]pyrrol-2-yl)methyl)acetamide]
cytotoxicity at 1 µM: < 25%

Cc1cc(NC(=O)NCc2cc3c(s2)C(=O)N(C2CCC(=O)NC2=O)C3)cc(N(C)C)c1 (stereo not shown) [II-49, 1-(3-(dimethylamino)-5-methylphenyl)-3-((5-(2,6-dioxopiperidin-3-yl)-6-oxo-5,6-dihydro-4H-thieno[2,3-c]pyrrol-2-yl)methyl)urea]
cytotoxicity at 1 µM: > 80%

CN1CCC(c2ccc(C(=O)C(=O)NCc3scc4c3CN(C3CCC(=O)NC3=O)C4=O)cc2)CC1 (stereo not shown) [Compound I-31, N-((5-(2,6-dioxopiperidin-3-yl)-4-oxo-5,6-dihydro-4H-thieno[3,4-c]pyrrol-1-yl)methyl)-2-(4-(1-methylpiperidin-4-yl)phenyl)-2-oxoacetamide]
cytotoxicity at 1 µM: < 25%

CCN(CC)c1cccc(NC(=O)NCc2cc3c(s2)C(=O)N(C2CCC(=O)NC2=O)C3)c1 (stereo not shown) [II-71, 1-(3-(diethylamino)phenyl)-3-((5-(2,6-dioxopiperidin-3-yl)-6-oxo-5,6-dihydro-4H-thieno[2,3-c]pyrrol-2-yl)methyl)urea]
cytotoxicity at 1 µM: > 80%

CN(C)c1ccc(CC(=O)NCc2scc3c2CN(C2CCC(=O)NC2=O)C3=O)cc1 (stereo not shown) [II-61, 2-(4-(dimethylamino)phenyl)-N-((5-(2,6-dioxopiperidin-3-yl)-4-oxo-5,6-dihydro-4H-thieno[3,4-c]pyrrol-1-yl)methyl)acetamide]
cytotoxicity at 1 µM: < 25%

Cc1ccc(CC(=O)NCc2cc3c(s2)C(=O)N(C2CCC(=O)NC2=O)C3)cc1Cl (stereo not shown) [II-30, 2-(3-chloro-4-methylphenyl)-N-((5-(2,6-dioxopiperidin-3-yl)-6-oxo-5,6-dihydro-4H-thieno[2,3-c]pyrrol-2-yl)methyl)acetamide]
cytotoxicity at 1 µM: < 25%

Cc1ccc(NC(=O)NCc2cc3c(s2)C(=O)N(C2CCC(=O)NC2=O)C3)cc1N1CCCC1 (stereo not shown) [II-98, 1-((5-(2,6-dioxopiperidin-3-yl)-6-oxo-5,6-dihydro-4H-thieno[2,3-c]pyrrol-2-yl)methyl)-3-(4-methyl-3-(pyrrolidin-1-yl)phenyl)urea]
cytotoxicity at 1 µM: > 80%

O=C1CCC(N2Cc3c(csc3CNC(=O)C(=O)c3ccc(F)cc3)C2=O)C(=O)N1 (stereo not shown) [Compound I-22, 2-(4-fluorophenyl)-N-((5-(2,6-dioxopiperidin-3-yl)-4-oxo-5,6-dihydro-4H-thieno[3,4-c]pyrrol-1-yl)methyl)-2-oxoacetamide]
cytotoxicity at 1 µM: < 25%

COc1cc(OC)c(C(=O)C(=O)NCc2cccc3c2CN(C2CCC(=O)NC2=O)C3=O)c(OC)c1 (stereo not shown) [Compound I-79, 2-(2,4,6-trimethoxyphenyl)-N-((2-(2,6-dioxopiperidin-3-yl)-1-oxoisoindolin-4-yl)methyl)-2-oxoacetamide]
cytotoxicity at 1 µM: < 25%

O=C1CCC(N2Cc3c(CCNC(=O)C(=O)c4ccc(C5(C(F)(F)F)CC5)cc4)cccc3C2=O)C(=O)N1 (stereo not shown) [Compound I-65, N-(2-(2-(2,6-dioxopiperidin-3-yl)-1-oxoisoindolin-4-yl)ethyl)-2-oxo-2-(4-(1-(trifluoromethyl)cyclopropyl)phenyl)acetamide]
cytotoxicity at 1 µM: < 25%

Cc1ccc(NC(=O)NCc2cc3c(s2)C(=O)N(C2CCC(=O)NC2=O)C3)cc1CN(C)C (stereo not shown) [II-51, 1-(3-((dimethylamino)methyl)-4-methylphenyl)-3-((5-(2,6-dioxopiperidin-3-yl)-6-oxo-5,6-dihydro-4H-thieno[2,3-c]pyrrol-2-yl)methyl)urea]
cytotoxicity at 1 µM: < 25%

CC(C)(C)c1ccc(CCCC(=O)NCc2scc3c2CN(C2CCC(=O)NC2=O)C3=O)cc1 (stereo not shown) [II-84, 4-(4-(tert-butyl)phenyl)-N-((5-(2,6-dioxopiperidin-3-yl)-4-oxo-5,6-dihydro-4H-thieno[3,4-c]pyrrol-1-yl)methyl)butanamide]
cytotoxicity at 1 µM: < 25%

CC(C)(C)c1ccc(C(=O)C(=O)NCc2ccc3c(c2)CN([C@H]2CCCC(=O)NC2=O)C3=O)cc1 [Compound I-10, (S)-2-(4-(tert-butyl)phenyl)-N-((2-(2,7-dioxoazepan-3-yl)-1-oxoisoindolin-5-yl)methyl)-2-oxoacetamide]
cytotoxicity at 1 µM: > 80%

CC(C)(C)c1ccc(CC(=O)NCc2scc3c2CN(C2CCC(=O)NC2=O)C3=O)cc1 (stereo not shown) [II-62, 2-(4-(tert-butyl)phenyl)-N-((5-(2,6-dioxopiperidin-3-yl)-4-oxo-5,6-dihydro-4H-thieno[3,4-c]pyrrol-1-yl)methyl)acetamide]
cytotoxicity at 1 µM: 25 to 50%

Cc1cc(C)c(C(=O)C(=O)NCc2cccc3c2CN(C2CCC(=O)NC2=O)C3=O)c(C)c1 (stereo not shown) [Compound I-80, 2-(2,4,6-trimethylphenyl)-N-((2-(2,6-dioxopiperidin-3-yl)-1-oxoisoindolin-4-yl)methyl)-2-oxoacetamide]
cytotoxicity at 1 µM: < 25%

CC(C)(C)C1CCC(C(=O)C(=O)NCc2ccc3c(c2)CN(C2CCC(=O)NC2=O)C3=O)CC1 (stereo not shown) [Compound I-68, 2-(4-(tert-butyl)cyclohexyl)-N-((2-(2,6-dioxopiperidin-3-yl)-1-oxoisoindolin-5-yl)methyl)-2-oxoacetamide]
cytotoxicity at 1 µM: < 25%

O=C1CCC(N2Cc3cc(CNC(=O)C(=O)c4ccccc4F)ccc3C2=O)C(=O)N1 (stereo not shown) [Compound I-86, N-((2-(2,6-dioxopiperidin-3-yl)-1-oxoisoindolin-5-yl)methyl)-2-oxo-2-(2-fluorophenyl)acetamide]
cytotoxicity at 1 µM: 50 to 80%

Cc1ccc(NC(=O)NCc2cc3c(s2)C(=O)N(C2CCC(=O)NC2=O)C3=O)cc1N(C)C (stereo not shown) [II-114, 1-(3-(dimethylamino)-4-methylphenyl)-3-((5-(2,6-dioxopiperidin-3-yl)-4,6-dioxo-5,6-dihydro-4H-thieno[2,3-c]pyrrol-2-yl)methyl)urea]
cytotoxicity at 1 µM: 25 to 50%

CCN(CC)c1ccc(NC(=O)NCc2cc3c(s2)C(=O)N(C2CCC(=O)NC2=O)C3)cc1C (stereo not shown) [II-52, 1-(4-(diethylamino)-3-methylphenyl)-3-((5-(2,6-dioxopiperidin-3-yl)-6-oxo-5,6-dihydro-4H-thieno[2,3-c]pyrrol-2-yl)methyl)urea]
cytotoxicity at 1 µM: < 25%

CC(C)(C)c1ccc(C(=O)C(=O)NCCc2scc3c2CN(C2CCC(=O)NC2=O)C3=O)cc1 (stereo not shown) [Compound I-41, 2-(4-(tert-butyl)phenyl)-N-(2-(5-(2,6-dioxopiperidin-3-yl)-4-oxo-5,6-dihydro-4H-thieno[3,4-c]pyrrol-1-yl)ethyl)-2-oxoacetamide]
cytotoxicity at 1 µM: > 80%

O=C1CCC(N2Cc3c(csc3CNC(=O)C(=O)c3ccc(Cl)cc3)C2=O)C(=O)N1 (stereo not shown) [Compound I-18, 2-(4-chlorophenyl)-N-((5-(2,6-dioxopiperidin-3-yl)-4-oxo-5,6-dihydro-4H-thieno[3,4-c]pyrrol-1-yl)methyl)-2-oxoacetamide]
cytotoxicity at 1 µM: < 25%

COc1ccc(CC(=O)NCc2scc3c2CN(C2CCC(=O)NC2=O)C3=O)cc1C(C)C (stereo not shown) [II-63, N-((5-(2,6-dioxopiperidin-3-yl)-4-oxo-5,6-dihydro-4H-thieno[3,4-c]pyrrol-1-yl)methyl)-2-(3-isopropyl-4-methoxyphenyl)acetamide]
cytotoxicity at 1 µM: > 80%
